Test results from PubChem BioAssay (NCI).
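GI50 marks 50% less growth. TGI denotes the concentration required for complete inhibition of growth.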

Tests used:
Assay in all cases: growth of human tumour cells (NCI), 384-well format
NCI-H322M lung = system: NCI-H322M lung
IGROV1 ovarian = system: IGROV1 ovarian
COLO 205 colon = system: COLO 205 colon
SK-MEL-5 melanoma = system: SK-MEL-5 melanoma
OVCAR-3 ovarian = system: OVCAR-3 ovarian
LOX IMVI melanoma = system: LOX IMVI melanoma
HCC-2998 colon = system: HCC-2998 colon
786-0 renal = system: 786-0 renal
BT-549 breast = system: BT-549 breast
EKVX NSCLC = system: EKVX NSCLC
ACHN renal = system: ACHN renal
HOP-62 NSCLC = system: HOP-62 NSCLC
NCI-H226 lung = system: NCI-H226 lung
NCI-H522 lung = system: NCI-H522 lung
K-562 leukemia = system: K-562 leukemia
RPMI-8226 leukemia = system: RPMI-8226 leukemia
HCT-15 colon = system: HCT-15 colon
PC-3 prostate = system: PC-3 prostate
RXF 393 renal = system: RXF 393 renal
MDA-MB-435 melanoma = system: MDA-MB-435 melanoma
MALME-3M melanoma = system: MALME-3M melanoma
HT29 colon = system: HT29 colon
NCI/ADR-RES ovarian = system: NCI/ADR-RES ovarian
CAKI-1 renal = system: CAKI-1 renal
A549 NSCLC = system: A549 NSCLC
UACC-257 melanoma = system: UACC-257 melanoma
SW-620 colon = system: SW-620 colon
SK-MEL-28 melanoma = system: SK-MEL-28 melanoma

Compound `CCN1Cc2c(ccc(F)c2C#N)O[C@@H](C)CNC(=O)c2c(N)nn3ccc1nc23` has a GI50 (NCI-H322M lung) of 2200 nM, a TGI (NCI-H322M lung) of 18800 nM and a GI50 (IGROV1 ovarian) of 566 nM. It also gave a TGI (IGROV1 ovarian) of 3350 nM, a GI50 (COLO 205 colon) of 271 nM and a TGI (COLO 205 colon) of 1010 nM. The GI50 (SK-MEL-5 melanoma) was 395 nM, the TGI (SK-MEL-5 melanoma) was 5310 nM and the GI50 (OVCAR-3 ovarian) was 1420 nM. It also gave a TGI (OVCAR-3 ovarian) of 11200 nM, a GI50 (LOX IMVI melanoma) of 529 nM and a TGI (LOX IMVI melanoma) of 1980 nM. For the same compound, the GI50 (HCC-2998 colon) was 4120 nM, the TGI (HCC-2998 colon) was 20900 nM and the GI50 ([…]-0 renal) was 1340 nM. The TGI (786-0 renal) was 12900 nM, the GI50 (BT-549 breast) was 2680 nM and the TGI (BT-549 breast) was 15300 nM. For the same compound, the GI50 (EKVX NSCLC) was 563 nM, the TGI (EKVX NSCLC) was 10300 nM and the GI50 (ACHN renal) was 385 nM. For the same compound, the TGI (ACHN renal) was 2060 nM, the GI50 (HOP-62 NSCLC) was 1210 nM and the TGI (HOP-62 NSCLC) was 11200 nM. The GI50 (NCI-H226 lung) was 1280 nM, the TGI (NCI-H226 lung) was 4700 nM and the GI50 (NCI-H522 lung) was 528 nM. The TGI (NCI-H522 lung) was 14300 nM, the GI50 (K-562 leukemia) was 66.4 nM and the TGI (K-562 leukemia) was 222 nM. For the same compound, the GI50 (RPMI-8226 leukemia) was 205 nM, the TGI (RPMI-8226 leukemia) was 598 nM and the GI50 (HCT-15 colon) was 757 nM. For the same compound, the TGI (HCT-15 colon) was 10300 nM, the GI50 (PC-3 prostate) was 1380 nM and the TGI (PC-3 prostate) was 17600 nM. It also gave a GI50 (RXF 393 renal) of 1320 nM, a TGI (RXF 393 renal) of 7180 nM and a GI50 (MDA-MB-435 melanoma) of 565 nM. The TGI (MDA-MB-435 melanoma) was 10500 nM, the GI50 (MALME-3M melanoma) was 436 nM and the TGI (MALME-3M melanoma) was 2410 nM. For the same compound, the GI50 (HT29 colon) was 694 nM, the TGI (HT29 colon) was 12400 nM and the GI50 (NCI/ADR-RES ovarian) was 3890 nM. The TGI (NCI/ADR-RES ovarian) was 15800 nM, the GI50 (CAKI-1 renal) was 523 nM and the TGI (CAKI-1 renal) was 1840 nM. The GI50 (A549 NSCLC) was 585 nM, the TGI (A549 NSCLC) was 12100 nM and the GI50 (UACC-257 melanoma) was 1020 nM. The TGI (UACC-257 melanoma) was 4890 nM, the GI50 (SW-620 colon) was 3820 nM and the TGI (SW-620 colon) was 16400 nM. For the same compound, the GI50 (SK-MEL-28 melanoma) was 620 nM and the TGI (SK-MEL-28 melanoma) was 3760 nM.
